Experimental data as given in patent publication US10266489B2, “Pyrrolic amide compound and preparation method and application thereof” (HitGen LTD, priority 2014, dated 2019).
pIC50: −log10 of the molar value.

Legend:
[1] = biological target: T1, histone deacetylase 6 (HDAC6) (Homo sapiens, UniProt Q9UBN7); assay: Detection of enzyme viability of histone deacetylase 6 (fluorogenic substrate deacetylation); assay type: biochemical; details: 0.35 ng/μL HDAC 6, 20 μM substrate, 37° C.
T1 construct: purchased BPS Bioscience 50076
T1 sequence (Q9UBN7 1-1215): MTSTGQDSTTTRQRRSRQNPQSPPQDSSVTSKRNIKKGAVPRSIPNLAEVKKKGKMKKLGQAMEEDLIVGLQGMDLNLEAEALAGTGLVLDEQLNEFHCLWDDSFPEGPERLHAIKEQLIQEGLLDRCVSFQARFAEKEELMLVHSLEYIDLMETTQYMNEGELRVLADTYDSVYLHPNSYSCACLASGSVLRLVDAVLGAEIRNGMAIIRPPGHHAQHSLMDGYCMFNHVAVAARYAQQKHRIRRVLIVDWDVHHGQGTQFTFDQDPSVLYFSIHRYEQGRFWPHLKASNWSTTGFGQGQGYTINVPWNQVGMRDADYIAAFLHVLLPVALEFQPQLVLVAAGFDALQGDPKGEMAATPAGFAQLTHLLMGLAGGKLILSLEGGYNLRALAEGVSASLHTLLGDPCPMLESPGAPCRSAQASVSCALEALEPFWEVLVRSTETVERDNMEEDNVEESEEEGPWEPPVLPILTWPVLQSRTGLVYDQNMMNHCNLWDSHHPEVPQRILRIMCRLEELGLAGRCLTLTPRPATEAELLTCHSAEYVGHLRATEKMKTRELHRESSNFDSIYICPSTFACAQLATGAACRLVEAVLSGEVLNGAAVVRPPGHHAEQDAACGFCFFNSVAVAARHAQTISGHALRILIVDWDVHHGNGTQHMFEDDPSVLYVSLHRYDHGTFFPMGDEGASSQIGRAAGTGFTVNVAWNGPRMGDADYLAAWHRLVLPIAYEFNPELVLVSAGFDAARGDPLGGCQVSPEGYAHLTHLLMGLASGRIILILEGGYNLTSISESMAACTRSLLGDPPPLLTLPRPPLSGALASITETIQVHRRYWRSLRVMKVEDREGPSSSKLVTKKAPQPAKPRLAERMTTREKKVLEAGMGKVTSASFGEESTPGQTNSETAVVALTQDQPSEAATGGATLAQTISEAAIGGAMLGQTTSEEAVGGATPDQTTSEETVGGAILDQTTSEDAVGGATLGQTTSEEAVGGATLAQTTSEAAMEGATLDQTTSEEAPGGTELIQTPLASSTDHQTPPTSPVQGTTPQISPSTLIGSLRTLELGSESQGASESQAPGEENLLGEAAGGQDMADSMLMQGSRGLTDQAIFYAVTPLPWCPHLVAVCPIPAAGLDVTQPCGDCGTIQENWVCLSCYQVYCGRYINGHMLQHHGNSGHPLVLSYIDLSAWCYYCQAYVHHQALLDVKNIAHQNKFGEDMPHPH
From the text: (§1) HDAC inhibitory viabilities of the compounds in the present invention are detected in detection of substrate deacetylation.
A: Detection of enzyme viability of histone deacetylase 6 (#50076, BPS Bioscience):
Acetyl of HDAC 6 on a substrate is removed, so that the substrate is activated and can be affected by a subsequently added developing solution, and fluorophore is released. The size of a fluorescence signal reflects the viability of the HDAC 6. An IC50 detection method of the enzyme is disclosed in Chuping Xu, Elisabetta Soragni improved Histone Deacetylase Inhibitors as Therapeutics for the Neurdegenerative DiseaseEriedreich's Ataxia: A New Synthetic Route. A total reaction system (100 μL/well) contains 0.35 ng/μL of HDAC 6, 20 μM of substrate and compounds of different concentrations. The fluorescence signal is measured within 30 minutes after incubation at a temperature of 37° C., inhibitory effects of the compounds are determined from the obtained data and mapped with the compound concentrations to obtain a concentration response curve, and the IC50 value is fitted according to a four-parameter model.
(§2) The compounds 1-19 prepared in the embodiments are subjected to detection of enzyme viability of histone deacetylase 6 (i.e., HDAC6) according to the method above. Test results are shown in Table 2, wherein the measured IC50 values of the compounds are classified as specified, as shown in Table 2: […]

[2] = biological target: T2, histone deacetylase 3 (HDAC3) (Homo sapiens, UniProt O15379); assay: Detection of enzyme viability of histone deacetylase 3 (fluorogenic substrate deacetylation); assay type: biochemical; details: 0.16 ng/μL HDAC 3, 10 μM substrate
T2 construct: purchased BPS Bioscience 50003
From the text: as §1
B: Detection of enzyme viability of histone deacetylase 3 (#50003, BPS Bioscience):
Acetyl of HDAC 3 on a substrate is removed, so that the substrate is activated and can be affected by the developing solution, and fluorophore is released. The size of a fluorescence signal reflects the viability of the HDAC 3. An IC50 detection method of the enzyme is disclosed in Chuping Xu, Elisabetta Soraeni Improved Histone Deacetylase Inhibitors as Therapeutics for the Neurdegenerative DiseaseFriedreich's Ataxia: A New Synthetic Route. A total reaction system (100 μL/well) contains 0.16 ng/μL of HDAC 3, 10 μM of substrate and compounds of different concentrations. The fluorescence signal is detected at Ex/Em=360/460 on line, inhibitory effects of the compounds are determined from the obtained data and mapped with the compound concentrations to obtain a concentration response curve, and the IC50 value is fitted according to a four-parameter model.
as §2, with “3” for “6”, “HDAC3)” for “HDAC6)”

Huh7 cells = assay: Determination of cell growth inhibition, CCK-8, Huh-7; assay type: cell-based; details: Homo sapiens, Huh-7 hepatoma cells, 72 hours, highest measured IC50 of single or multiple operations
From the text: (§3) Test example 2 Cell determination-determination of cell growth inhibition Materials and reagents HepG2 cell strains, Hep3B cell strains, Huh7 cell strains and Li7 cell strains are purchased from Shanghai Institutes for Biological Sciences of Chinese Academy of Sciences; DMEM high glucose media and MEM media are purchased from Hyclone; fetal calf serum is purchased from Gibco Company; trypsin is purchased from Invitrogen Shanghai; CCK-8 kits are purchased from Beyotime Institute of Biotechnology; and other consumables such as cell-culture dishes and the like are purchased from Corning China. […]
(§4) comprising the steps: digesting HepG2 cells, Hep3B Huh7 cells and Li7 cells in logarithmic phases by using the trypsin; after counting the cells by taking uniform cell suspension, adjusting cell density to 1500 cells/pore by using a culture medium containing 10% of serum, and re-inoculating into a 96-pore cell culture plate, wherein the culture volume is 200 μL; incubating in a 5% CO2 incubator at a temperature of 37° C.; and culturing for 24 hours for experiments. […]
(§5) comprising the steps: taking the cells cultured for 24 hours from the incubator, sucking culture solution in the pore plate, adding 200 μL of compound solution prepared by using a culture medium containing 10% of the fetal calf serum into each pore, enabling five pores of each concentration to be parallel, setting DMSO at negative control, and incubating in the 5% CO2 incubator at a temperature of 37° C. for 72 hours for performing CCK-8 detection. […]
(§6) comprising the steps: taking a serum-free medium and a CCK-8 solution, and preparing a CCK-8 working solution according to a ratio of 10:1 (the process needs to be protected from light); taking the cells cultured for 72 hours from the incubator, sucking culture solution in the pore plate, adding 120 μL of the CCK-8 working solution into each pore, adding 120 μL of the CCK-8 working solution into a cell-free pore plate to serve as blank control, and incubating in the 5% CO2 incubator at a temperature of 37° C. for one hour (the process needs to be protected from light ); and […]
(§7) taking the pore plate from the incubator, sucking 100 μL of solution from each pore into a new 96-pore plate, and reading absorbancy at 450 nm (the process needs to he protected from light).
(§8) Tx: absorbancy measured in CCK-8 within 72 hours after compound effect
(§9) C: absorbancy measured m CCK-8 within 72 hours after culturing in negative control pores B: absorbancy measured CCK-8 in blank control pores
(§10) The compounds 1-19 prepared in the embodiments are operated in the above determination, and test results are shown in Table 3, wherein the highest measured IC50 values of the various compounds during single or multiple operations are classified as specified, as shown in Table 3: […]

Hep3B cells = assay: Determination of cell growth inhibition, CCK-8, Hep3B; assay type: cell-based; details: Homo sapiens, Hep3B hepatoma cells, 72 hours, highest measured IC50 of single or multiple operations
From the text: as §3, §4, §5, §6, §7, §8, §9, §10

Li7 cells = assay: Determination of cell growth inhibition, CCK-8, Li-7; assay type: cell-based; details: Li-7 hepatoma cells, 72 hours, highest measured IC50 of single or multiple operations
From the text: as §3, §4, §5, §6, §7, §8, §9, §10

HepG2 cells = assay: Determination of cell growth inhibition, CCK-8, HepG2; assay type: cell-based; details: Homo sapiens, HepG2 hepatoma cells, 72 hours, highest measured IC50 of single or multiple operations
From the text: as §3, §4, §5, §6, §7, §8, §9, §10

T2 sequence (O15379 whole entry): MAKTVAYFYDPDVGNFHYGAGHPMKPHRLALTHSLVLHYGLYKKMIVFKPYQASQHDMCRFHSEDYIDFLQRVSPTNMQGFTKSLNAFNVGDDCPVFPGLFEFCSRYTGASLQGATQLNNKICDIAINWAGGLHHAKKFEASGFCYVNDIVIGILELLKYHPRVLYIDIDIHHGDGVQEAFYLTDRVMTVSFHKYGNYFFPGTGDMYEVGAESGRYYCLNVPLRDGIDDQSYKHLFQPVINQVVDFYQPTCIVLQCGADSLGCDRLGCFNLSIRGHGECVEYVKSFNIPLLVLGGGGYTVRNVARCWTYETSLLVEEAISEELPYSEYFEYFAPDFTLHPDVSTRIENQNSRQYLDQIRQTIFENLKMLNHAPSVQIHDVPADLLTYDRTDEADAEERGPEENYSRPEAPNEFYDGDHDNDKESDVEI
T2 sequence (Q9Y618 395-489 partner limits assumed): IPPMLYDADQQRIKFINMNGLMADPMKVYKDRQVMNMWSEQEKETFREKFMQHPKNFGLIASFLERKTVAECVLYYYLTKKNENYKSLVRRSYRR

| SMILES | pIC50 [1] | pIC50 [2] | pIC50 (Huh7 cells) | pIC50 (Hep3B cells) | pIC50 (Li7 cells) | pIC50 (HepG2 cells) |
| --- | --- | --- | --- | --- | --- | --- |
| CC(C)(C)c1ccc(S(=O)(=O)N2CC=C(C(=O)NO)C2)cc1 [Compound 8] | > 7.00 | 6.00 to 7.00 | < 5.00 | < 5.00 | < 5.00 | < 5.00 |
| COc1ccc(S(=O)(=O)N2CC=C(C(=O)NO)C2)cc1OC [Compound 17, N-hydroxy-1-((3,4-dimethoxyphenyl)sulfonyl) 2,5-dihydro-1H-pyrrole-3-formamide] | 6.52 to 7.00 |  | < 5.00 | < 5.00 | < 5.00 | < 5.00 |
| Cc1ccc(S(=O)(=O)N2CC=C(C(=O)NO)C2)cc1 [Compound 15, N-hydroxy-1-((4-methylphenyl)sulfonyl)2,5-dihydro-1H-pyrrole-3-formamide] | > 7.00 |  | < 5.00 | > 5.00 | > 5.00 | > 5.00 |
| O=C(NO)C1=CCN(S(=O)(=O)c2ccc(F)cc2)C1 [Compound 11, N-hydroxy-1-((4-fluoro-phenyl)sulfonyl) 2,5-dihydro-1H-pyrrole-3-formamide] | > 7.00 |  | < 5.00 | < 5.00 | < 5.00 | < 5.00 |
| Cc1cccc(S(=O)(=O)N2CC=C(C(=O)NO)C2)c1 [Compound 16, N-hydroxy-1-((3-methylphenyl)sulfonyl)2,5-dihydro-1H-pyrrole-3-formamide] | > 7.00 |  | < 5.00 | < 5.00 | < 5.00 | > 5.00 |
| COc1cccc(S(=O)(=O)N2CC=C(C(=O)NO)C2)c1 [Compound 14, N-hydroxy-1-((3-methoxy-phenyl)sulfonyl) 2,5-dihydro-1H-pyrrole-3-formamide] | > 7.00 |  | < 5.00 | > 5.00 | > 5.00 | > 5.00 |
| O=C(NO)C1=CCN(S(=O)(=O)c2ccc(C3=CCNCC3)cc2)C1 [Compound 18, N-hydroxy-1-((4-(1,2,3,6-tetrahydro-pyridine-4-yl)phenyl)sulfonyl) 2,5-dihydro-1H-pyrrole-3-formamide] | 6.52 to 7.00 |  | < 5.00 | < 5.00 | < 5.00 | < 5.00 |
| CC(=O)Nc1ccc(S(=O)(=O)N2CC=C(C(=O)NO)C2)cc1 [Compound 10, N-hydroxy-1-((4-acetamido-phenyl)sulfonyl) 2,5-dihydro-1H-pyrrole-3-formamide] | > 7.00 |  | < 5.00 | < 5.00 | < 5.00 | < 5.00 |
| CNC(=O)c1ccc(S(=O)(=O)N2CC=C(C(=O)NO)C2)cc1 [Compound 9, N-hydroxy-1-((4-(methylaminecarbonyl)phenyl)sulfonyl) 2,5-dihydro-1H-pyrrole-3-formamide] | > 7.00 |  | < 5.00 | < 5.00 | < 5.00 | < 5.00 |
| O=C(NO)C1=CCN(S(=O)(=O)c2cccc(F)c2)C1 [Compound 12, N-hydroxy-1-((3-fluoro-phenyl)sulfonyl) 2,5-dihydro-1H-pyrrole-3-formamide] | > 7.00 |  | < 5.00 | < 5.00 | < 5.00 | > 5.00 |
| N#Cc1ccc(S(=O)(=O)N2CC=C(C(=O)NO)C2)cc1 [Compound 1, N-hydroxy-1-((4-benzene-cyano)sulfonyl) 2,5-dihydro-1H-pyrrole-3-formamide] | 6.52 to 7.00 |  | < 5.00 | < 5.00 | < 5.00 | < 5.00 |
| Nc1ccccc1NC(=O)C1=CCN(S(=O)(=O)c2ccccc2)C1 [Compound 19, N-(2-aminophenyl)-1-(benzenesulfonyl)-2,5-dihydro-1H-pyrrole-3-formamide] | < 6.30 |  | < 5.00 | < 5.00 | < 5.00 | < 5.00 |
| COc1ccc(S(=O)(=O)N2CC=C(C(=O)NO)C2)cc1 [Compound 13, N-hydroxy-1-((4-methoxy-phenyl)sulfonyl) 2,5-dihydro-1H-pyrrole-3-formamide] | > 7.00 |  | < 5.00 | > 5.00 | > 5.00 | > 5.00 |
| O=C(NO)C1=CCN(S(=O)(=O)c2ccc(C(=O)O)cc2)C1 [Compound 7] | > 7.00 |  | < 5.00 | < 5.00 | < 5.00 | < 5.00 |
